Patent US20070287718A1 (priority 2003, published 2007)

Columns and labels:
RNA polII on Ser-2 [1] = test: Western blotting of RNA pol II phosphorylation, XG-6 cells; type: cell-based, human; conditions: XG-6, 30 μM, seven hours
Text: (§1) The downregulation of Mcl-1 preceded the induction of apoptosis.

Mcl-1 mRNA = test: Real time PCR of Mcl-1 mRNA in LP-1 cells; type: cell-based; conditions: normalised to 28S rRNA
Mcl-1 [2] = test: Western blot, Mcl-1 protein levels in myeloma cell lines; type: cell-based
[3] = test system: RNA polymerase II at the serine 2 position of the CTD; test: Western blot, RNA polymerase II CTD phosphorylation in LP-1 cells; conditions: 30 μM CYC202
MDN = test: Induction of apoptosis by apo2.7 immunostaining; type: cell-based, human
Text: (§2) The induction of apoptosis at day 3 by apo2.7 was investigated by immunostaining.

XG-1 = test: Induction of apoptosis by apo2.7 immunostaining; type: cell-based, human
Text: as §2

XG-6 = test: Induction of apoptosis by apo2.7 immunostaining; type: cell-based, human
Text: as §2

Hdm2 = test: Western blot, Hdm2 levels in myeloma cells; type: cell-based
[4] = test system: multiple myeloma cell lines; test: Apoptosis by TUNEL, flow cytometry; type: cell-based; conditions: 30 μM CYC202
Protocol: All cell lines were obtained from the DSMZ (Deutsche Sammlung von Mikroorganismen und Zellkulturen).
Cells were seeded onto 90 mm diameter plates. […] Cells were harvested at various time points after addition of the drug. After washing once in PBS, cells were fixed in ice-cold 70% v/v ethanol and stored for up to 2 weeks at −20° C. Cells were washed twice in PBS +1% w/v BSA to remove fixative and re-suspended in PBS containing 50 μg/ml propidium iodide and 50 μg/ml RnaseA. After incubation at room temperature for 20 min, cells were analysed using flow cytometry.
A Becton Dickinson LSR flow cytometer was used for these studies, in accordance with the manufacturers recommendations. […] Red fluorescence (575±26 nm) was acquired on a linear scale and pulse width analysis was used to exclude cell doublets and aggregates from the analysis. Cells with a DNA content of between 2 n and 4 n were designated as being in G1, S or G2/M phases of the cell cycle, as defined by the level of red fluorescence. […] The number of cells in each cell cycle compartment was expressed as a percentage of the total number of cells present. Analysis of apoptosis was determined using terminal deoxynucleotidyltransferase dUTP nick end labelling (TUNEL) using the APO-DIRECT kit from BD biosciences (catalog number 556381) according to the manufacturer's instructions.

[5] = test system: non myeloma cell population; test: Apoptosis in cells taken from a multiple myeloma patient (ex vivo); type: cell-based, human; design: dose or concentration left out as unconfirmed; conditions: […] μM CYC202, day 2, patient cells ex vivo
Text: (§3) Myeloma cells were identified by their high expression of CD38.
(§4) Myeloma cells were identified by their high expression of CD38. The number of apoptotic cells in the myeloma cell population was of 46% whereas only 4% of the non myeloma cell population was induced on apoptosis.

[6] = test system: myeloma cell population (high expression of CD38); test: as above; type: cell-based, human; design: dose or concentration left out as unconfirmed; conditions: […] μM CYC202, day 2, patient cells ex vivo
Text: as §3, §4

Mcl-1 [7] = test: Western blotting of Mcl-1 expression, XG-1 cells; type: cell-based, human; conditions: XG-1, 30 μM, seven hours
Text: as §1

Mcl-1 [8] = test: Western blotting of Mcl-1 expression, XG-6 cells; type: cell-based, human; conditions: XG-6, 30 μM, seven hours
Text: as §1

Mcl-1 [9] = test: Western blotting of Mcl-1 expression, MDN cells; type: cell-based, human
Text: as §1

RNA polII on Ser-2 [10] = test: Western blotting of RNA pol II phosphorylation, XG-1 cells; type: cell-based, human; conditions: XG-1, 30 μM, seven hours
Text: as §1

RNA polII on Ser-2 [11] = test: Western blotting of RNA pol II phosphorylation, MDN cells; type: cell-based, human; conditions: 30 μM, seven hours
Text: as §1

CTD of RNA polymerase II = test: Western blot, phosphorylation of CTD of RNA polymerase II in myeloma cells; type: cell-based; conditions: 60 mM DRB
Text: Arrow indicates cleaved form indicative of apoptosis.

Cdk9/cyclin T1 = Cdk9/cyclin T1 (Homo sapiens, UniProt P50750); conditions: CDK 9/Cyclin T (McClue et al., 2002); cited from earlier work
Sequence of Cdk9/cyclin T1 (P50750 whole entry, species assumed): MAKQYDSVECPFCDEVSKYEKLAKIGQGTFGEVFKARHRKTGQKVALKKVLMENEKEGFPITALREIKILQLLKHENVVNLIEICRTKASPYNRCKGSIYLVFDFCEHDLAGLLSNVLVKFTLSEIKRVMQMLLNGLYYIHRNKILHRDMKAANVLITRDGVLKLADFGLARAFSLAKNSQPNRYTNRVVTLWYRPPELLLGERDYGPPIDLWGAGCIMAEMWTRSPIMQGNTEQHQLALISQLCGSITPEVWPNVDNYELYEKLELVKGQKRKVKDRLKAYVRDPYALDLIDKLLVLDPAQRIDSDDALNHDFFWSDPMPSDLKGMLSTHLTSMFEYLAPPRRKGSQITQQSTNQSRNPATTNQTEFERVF
Sequence of Cdk9/cyclin T1 (O60563 whole entry partner, species assumed): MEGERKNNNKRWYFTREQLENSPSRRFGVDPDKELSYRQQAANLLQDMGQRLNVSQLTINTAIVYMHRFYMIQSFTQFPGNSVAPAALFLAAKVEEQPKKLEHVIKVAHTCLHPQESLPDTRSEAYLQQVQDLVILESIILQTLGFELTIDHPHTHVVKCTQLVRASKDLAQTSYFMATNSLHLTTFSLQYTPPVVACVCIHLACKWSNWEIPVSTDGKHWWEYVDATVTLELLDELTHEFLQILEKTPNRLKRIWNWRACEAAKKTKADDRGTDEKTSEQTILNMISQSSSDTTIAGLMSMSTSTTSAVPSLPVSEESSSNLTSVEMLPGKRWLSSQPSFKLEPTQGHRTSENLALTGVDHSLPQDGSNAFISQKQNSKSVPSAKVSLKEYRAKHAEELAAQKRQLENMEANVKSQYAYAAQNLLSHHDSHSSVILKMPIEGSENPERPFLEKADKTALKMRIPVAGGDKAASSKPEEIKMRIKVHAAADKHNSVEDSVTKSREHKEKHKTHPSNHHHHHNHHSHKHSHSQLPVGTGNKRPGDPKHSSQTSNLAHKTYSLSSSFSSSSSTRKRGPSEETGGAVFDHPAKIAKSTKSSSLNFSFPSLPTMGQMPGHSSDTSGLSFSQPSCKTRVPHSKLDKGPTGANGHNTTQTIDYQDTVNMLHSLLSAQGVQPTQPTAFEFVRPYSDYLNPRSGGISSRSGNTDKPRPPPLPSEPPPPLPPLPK

CC[C@H](CO)Nc1nc(NCc2ccccc2)c2ncn(C(C)C)c2n1 (single isomer, unassigned) [CYC202, 2-(1-R-hydroxymethylpropylamino)-6-benzylamino-9-isopurine]
phosphorylation of RNA polII on Ser-2 (RNA polII on Ser-2 [1]): total downregulation
levels of Mcl-1 mRNA by real-time PCR (Mcl-1 mRNA): reduced
levels of Mcl-1 protein (Mcl-1 [2]; all cell lines studied, CYC202 treatment): rapidly reduced in all cell lines, by three hours
dephosphorylation of RNA polymerase II at serine 2 of the CTD [3]: rapid dephosphorylation of RNA polymerase II at the serine 2 position of the CTD of RNA pol II, by one and a half hours
% of apoptotic cells after 3 day treatment (MDN; 3 μM): 3%
% of apoptotic cells after 3 day treatment (MDN; 6 μM): 5%
% of apoptotic cells after 3 day treatment (MDN; 12 μM): 41%
induction of apoptosis at day 3 (apo2.7) (MDN; 12 μM): significant and strong induction of apoptosis
induction of apoptosis at day 3 (apo2.7) (XG-1; XG1, 30 μM): significant and strong induction of apoptosis
% of apoptotic cells after 3 day treatment (XG-1; XG-1, 7.5 μM): 2%
% of apoptotic cells after 3 day treatment (XG-1; XG-1, 30 μM): 70%
% of apoptotic cells after 3 day treatment (XG-1; XG-1, […] μM): 18%
% of apoptotic cells after 3 day treatment (XG-6; XG-6, 7.5 μM): 4%
% of apoptotic cells after 3 day treatment (XG-6; XG-6, 30 μM): 74%
induction of apoptosis at day 3 (apo2.7) (XG-6; XG-6, 30 μM): significant and strong induction of apoptosis
% of apoptotic cells after 3 day treatment (XG-6; XG-6, […] μM): 15%
levels of Hdm2 (Hdm2; myeloma cell lines, CYC202 treatment): also reduced
induction of apoptosis (TUNEL) [4]: rapid apoptosis seen in the majority of cells by eight hours
non myeloma cell population induced on apoptosis [5]: 4%
number of apoptotic cells in the myeloma cell population [6]: 46%
Mcl-1 expression (Mcl-1 [7]): strong downregulation of Mcl-1
Mcl-1 expression (Mcl-1 [8]): strong downregulation of Mcl-1
Mcl-1 expression (Mcl-1 [9]; 30 μM of CYC202, seven hours): total downregulation of Mcl-1
Mcl-1 expression (Mcl-1 [9]; 6 or […] μM of CYC202, seven hours): decrease of Mcl-1 expression
phosphorylation of RNA polII on Ser-2 (RNA polII on Ser-2 [10]): total downregulation
phosphorylation of RNA polII on Ser-2 (RNA polII on Ser-2 [11]): total downregulation

OC[C@H]1O[C@@H](n2cnc3cc(Cl)c(Cl)cc32)[C@H](O)[C@@H]1O [DRB, reference compound]
phosphorylation of the CTD of RNA polymerase II (CTD of RNA polymerase II): inhibits phosphorylation
Mcl-1 levels (Mcl-1 [2]; myeloma cells, 60 mM DRB): down regulates
Hdm2 levels (Hdm2; myeloma cells, 60 mM DRB): down regulates

CC[C@H](CO)Nc1nc(NCc2ccccc2)c2ncn(C(C)C)c2n1 (racemic) [roscovitine, 2-[(1-ethyl-2-hydroxyethyl)amino]-6-benzylamine-9-isopropylpurine]
inhibition in vitro (Cdk9/cyclin T1): low μM concentrations
